One series relates to lung carcinoma, MBA9812. On the set-up: method as in doi:10.1021/jo00007a009. The conditions noted are these: cited from earlier work.
For a further series, the system named is Staphylococcus aureus. More on the design: method as in PMID 26968676. The conditions noted are these: cited from earlier work.
The next series deals with MCF-7. More on the design: method as in PMID 23136829. The conditions noted are these: read-out: IC50, in vitro cytotoxicity toward MCF-7; cited from earlier work.
The test system of the next series is SF-268. More on the design: method as in PMID 23136829. As to conditions: read-out: IC50, in vitro cytotoxicity toward SF-268; cited from earlier work.
For the next series, the system named is MCF-7 (breast cancer). The series can be described thus: Sulforhodamine B cytotoxicity assay, MCF-7. Type of series: cell-based. The conditions noted are these: for Selectivity index (SI), ratio of IC50 in CoN in cancer cells, MCF-7: CCD841-CoN IC50 / MCF-7 IC50; for IC50: Homo sapiens, MCF7, 72 h continuous exposure, SRB assay, mean ± SD, read-out: IC50 Values MCF-7. Here is the method: (§1) To analyse the scope of the shikimic-fragment incorporated in the angucycline scaffold on the cytotoxic activity of these compounds, we included five previously obtained compounds (Figure 2, [32]). Therefore, the cytotoxicity of the new nine synthesised compounds, and of the five aforementioned compounds, was evaluated in vitro against different cancer cell lines: PC-3 (prostate cancer), HT-29 (colon cancer), MCF-7 (breast cancer), and one non-tumoral cell line, human colon epithelial cells (CCD841 CoN). A conventional colorimetric assay was set up to estimate the IC50 values, which represent the concentration of a drug that is required for 50% inhibition in vitro after 72 h of continuous exposure to the test compounds. Several serial dilutions (from 1.25 to 100 µM) for each sample were evaluated in triplicate.
(§2) The experimental cell lines were obtained from the American Type Culture Collection. HT-29 (colon cancer cell line), PC-3 (prostate cancer), MCF-7 (breast cancer), and CCD841 CoN (colon epithelial) were grown in DMEM-F12 containing 10% FCS, 100 U/mL penicillin, 100 µg/mL streptomycin, and 1 mM glutamine.
(§3) The in vitro cytotoxic activities of all the compounds were evaluated on cell lines previously mentioned by the sulforhodamine B assay, according to [42]. Briefly, cells were seeded at a plating density of 5 × 10^3 cells/well into 96 well plates. Cells were incubated at 37 °C for 24 h to allow cell attachment. The test compounds at indicated final concentrations were added to the culture medium and the cell cultures were continued for 72 h under the same conditions. Stock solutions of compounds were prepared in DMSO. Control cultures received 0.1% DMSO alone. At the end of the treatment, cells were fixed with trichloroacetic acid (50% w/v) at 4 °C and, subsequently, washed with water. Cells were stained with 0.1% sulforhodamine B in 1% acetic acid for 30 min. Posteriorly, the cells were washed acetic acid (1%) to remove unbound sulforhodamine B. Protein-bound stain was solubilized with 10 mM unbuffered Tris base). The optical density was determined using a […] plate reader (540 nm). The obtained values are transformed to percentages of viable cells versus control treatment and the IC50 values calculated for each compound in the cell lines were studied using the SigmaPlot 12.0 software (Systat Software, San Jose, CA, USA). Values shown are the mean ± SD of the three independent experiments in triplicate.

In series [1] the test system is human colon epithelial cells (CCD841 CoN). The series can be described thus: Sulforhodamine B cytotoxicity assay, non-tumoral CCD841 CoN. The class given is cell-based. The conditions noted are these: CCD-841CoN, 72 h continuous exposure, SRB assay, mean ± SD. Here is the method:
as §1, §2, §3

The next series deals with PC-3 (prostate cancer). The series can be described thus: Sulforhodamine B cytotoxicity assay, PC-3. The class given is cell-based. The conditions noted are these: for Selectivity index (SI), ratio of IC50 in CoN in cancer cells, PC-3: CCD841-CoN IC50 / PC-3 IC50. As to the method:
as §1, §2, §3
On the technique in general: Sulforhodamine B stains cellular protein and so reports cell mass.

Another series deals with HT-29 (colon cancer). The series can be described thus: Sulforhodamine B cytotoxicity assay, HT-29. The conditions noted are these: for IC50: 72 h continuous exposure, SRB assay, mean ± SD. Type of series: cell-based. Here is the method:
as §1, §2, §3

A value given as a limit tells only on which side of the number the result lay.

As for `CN[C@H]1C[C@@H](Oc2cc(C)cc3cnc4c(c23)C(=O)c2cccc(O)c2C4=O)O[C@H](C)[C@H]1O` [Compound 4a, phenanthroviridin], the “activity against the lung carcinoma, MBA9812, in mice” value with lung carcinoma, MBA9812 was “active”.

In general, IC50 refers to the concentration needed to halve the response being measured. Turning to `Cc1cc(O)c2c3c(ncc2c1)C(=O)c1c(O)cccc1C3=O` [Compound 4b, phenanthroviridone], the “antibacterial activities against Staphylococcus aureus” value in the series with Staphylococcus aureus is “antibacterial activities”. Further, the values for the IC50 with MCF-7 and in the series on SF-268 were 170 nM and 90 nM, respectively. Further, the “activity against the lung carcinoma, MBA9812, in mice” value in the series with lung carcinoma, MBA9812 is “active”.

Usually melting point stands for the temperature, or range, at which the solid turns liquid. In turn, `CO[C@H]1C=Cc2cnc3c(c2[C@@H]1OC)C(=O)c1ccc(C)nc1C3=O` [Compound 19b, (1S,2S)-1,2-Dimethoxy-9-methyl-1,2-dihydropyrido[3,2-b]phenanthridine-7,12-dione] yielded a melting point of 161.2 °C. In the series on MCF-7 (breast cancer), the “Selectivity index (SI), ratio of IC50 in CoN in cancer cells, MCF-7” value turned out to be 1.6 and the IC50 is 0.19 ± 0.04 µM. In addition, the IC50 in series [1] was 0.3 ± 0.02 µM. Moreover, in the series on PC-3 (prostate cancer), the “Selectivity index (SI), ratio of IC50 in CoN in cancer cells, PC-3” value is listed as 0.7. This molecule also displayed a 50% inhibitory concentration (IC50) in the series with HT-29 (colon cancer) of 390 ± 40 nM. Further, the IC50 in the series on HT-29 (colon cancer) (Homo sapiens, HT-29, 72 h) is under 400 nM.

Molecule `CO[C@H]1C=Cc2cnc3c(c2[C@@H]1OC)C(=O)c1ccccc1C3=O` [Compound 19c, (1S,2S)-1,2-Dimethoxy-1,2-dihydrobenzo[b]phenanthridine-7,12-dione] registered a melting point of 117.5 °C. For the same molecule, in the series on MCF-7 (breast cancer), the “Selectivity index (SI), ratio of IC50 in CoN in cancer cells, MCF-7” value is on record as 1.4 and the IC50 worked out at 12.8 ± 1.4 µM. The same molecule gave an IC50 in series [1] of 17.4 ± 2 µM. In the series with PC-3 (prostate cancer) (72 h, 72 h continuous exposure, SRB assay, mean ± SD), this molecule came in with an IC50 of 4 ± 0.4 µM. For the same molecule, in the series with PC-3 (prostate cancer), the “Selectivity index (SI), ratio of IC50 in CoN in cancer cells, PC-3” value amounted to 4.4. In addition, the “Selectivity index (SI), ratio of IC50 in CoN in cancer cells, HT-29” value with HT-29 (colon cancer) (CCD841-CoN IC50 / HT-29 IC50) amounted to 0.8. In addition, the IC50 in the series on HT-29 (colon cancer) (Homo sapiens, HT-29, 72 h) was found to be 21000 ± 3600 nM.

Source of the values: PMC6099682, “(-)-Shikimic Acid as a Chiral Building Block for the Synthesis of New Cytotoxic 6-Aza-Analogues of Angucyclinones” (Molecules : A Journal of Synthetic Chemistry and Natural …, 2018).
